Results as given in PubChem BioAssay AID2060483 (Molecular Pharmacology Branch, DTP, NCI, 2025).

Tested on: K24384-001-R-PDC complex spheroids, viability
Experiment: Anticancer human tumor K24384-001-R-PDC patient-derived pancreatic adenocarcinoma cell line growth inhibition [GQUAD]
Settings: for IC50: curve of first compound; for viability, T/C: stronger effect = lower value; active = viability on the fitted dose curve at most 10% of control; inactive = the rest
Method in brief: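 Viability of tumor cells grown as complex spheroids with endothelial and stromal cells, exposed to drug combinations. Top concentration at or near clinical Cmax (else 10 microM), diluted in half-log increments.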

[1] = second compound 0.0316 µM, first compound 0.0316 µM
[2] = second compound 0.0316 µM, first compound 0.1 µM
[3] = second compound 0.0316 µM, first compound 0.316 µM
[4] = second compound 0.0316 µM, first compound 1 µM
[5] = second compound 0.0316 µM, first compound 3.16 µM
[6] = second compound 0.0316 µM, first compound 10 µM
[7] = second compound 0.1 µM, first compound 0.0316 µM
[8] = second compound 0.1 µM, first compound 0.1 µM
[9] = second compound 0.1 µM, first compound 0.316 µM
[10] = second compound 0.1 µM, first compound 1 µM
[11] = second compound 0.1 µM, first compound 3.16 µM
[12] = second compound 0.1 µM, first compound 10 µM
[13] = second compound 0.316 µM, first compound 0.0316 µM
[14] = second compound 0.316 µM, first compound 0.1 µM
[15] = second compound 0.316 µM, first compound 0.316 µM
[16] = second compound 0.316 µM, first compound 1 µM
[17] = second compound 0.316 µM, first compound 3.16 µM
[18] = second compound 0.316 µM, first compound 10 µM
[19] = second compound 1 µM, first compound 0.0316 µM
[20] = second compound 1 µM, first compound 0.1 µM
[21] = second compound 1 µM, first compound 0.316 µM
[22] = second compound 1 µM, first compound 1 µM
[23] = second compound 1 µM, first compound 3.16 µM
[24] = second compound 1 µM, first compound 10 µM
[25] = second compound 3.16 µM, first compound 0.0316 µM
[26] = second compound 3.16 µM, first compound 0.1 µM
[27] = second compound 3.16 µM, first compound 0.316 µM
[28] = second compound 3.16 µM, first compound 1 µM
[29] = second compound 3.16 µM, first compound 3.16 µM
[30] = second compound 3.16 µM, first compound 10 µM
[31] = second compound 10 µM, first compound 0.0316 µM
[32] = second compound 10 µM, first compound 0.1 µM
[33] = second compound 10 µM, first compound 0.316 µM
[34] = second compound 10 µM, first compound 1 µM
[35] = second compound 10 µM, first compound 3.16 µM
[36] = second compound 10 µM, first compound 10 µM
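Note: spheroids exposed to compounds for seven days.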

C=CCn1c(=O)c2cnc(Nc3ccc(N4CCN(C)CC4)cc3)nc2n1-c1cccc(C(C)(C)O)n1 + CN(C)c1ccc(Nc2c3ccc(NC(=O)CCN4CCCC4)cc3nc3cc(NC(=O)CCN4CCCC4)ccc23)cc1
266 nM: IC50 (second compound 0.1 µM)
275 nM: IC50 (second compound 1 µM)
229 nM: IC50 (second compound 10 µM)
inactive: viability, T/C [1] 85.5% | viability, T/C [2] 81% | viability, T/C [3] 57.3% | viability, T/C [4] 18% | viability, T/C [5] 15.9% | viability, T/C [6] 17.9% | viability, T/C [7] 76.2% | viability, T/C [8] 68.9% | viability, T/C [9] 47% | viability, T/C [10] 15.6% | viability, T/C [11] 14% | viability, T/C [12] 14.8% | viability, T/C [13] 80.2% | viability, T/C [14] 86.7% | viability, T/C [15] 38.6% | viability, T/C [16] 16.3% | viability, T/C [17] 12% | viability, T/C [18] 14.5% | viability, T/C [19] 76.7% | viability, T/C [20] 83.3% | viability, T/C [21] 45.9% | viability, T/C [22] 19.1% | viability, T/C [23] 12.2% | viability, T/C [24] 18% | viability, T/C [25] 84.2% | viability, T/C [26] 80.3% | viability, T/C [27] 39.3% | viability, T/C [28] 19.3% | viability, T/C [29] 16.3% | viability, T/C [30] 13.6% | viability, T/C [31] 63.5% | viability, T/C [32] 64.8% | viability, T/C [33] 44.5% | viability, T/C [34] 20% | viability, T/C [35] 16.9% | viability, T/C [36] 13.1%
392 nM: IC50 (second compound 0.0316 µM)
235 nM: IC50 (second compound 3.16 µM)
236 nM: IC50 (second compound 0.316 µM)

CC(C)(O)C1CCC(Nc2ccc3ncc(-c4cccc(C(F)(F)F)c4)n3n2)CC1 (stereo not drawn) + CN(C)c1ccc(Nc2c3ccc(NC(=O)CCN4CCCC4)cc3nc3cc(NC(=O)CCN4CCCC4)ccc23)cc1
2160 nM: IC50 (second compound 1 µM)
1240 nM: IC50 (second compound 10 µM)
1890 nM: IC50 (second compound 3.16 µM)
2030 nM: IC50 (second compound 0.1 µM)
2350 nM: IC50 (second compound 0.0316 µM)
2380 nM: IC50 (second compound 0.316 µM)
inactive: viability, T/C [1] 106% | viability, T/C [2] 106% | viability, T/C [3] 102% | viability, T/C [4] 84.6% | viability, T/C [5] 37.5% | viability, T/C [6] 37.2% | viability, T/C [7] 105% | viability, T/C [8] 104% | viability, T/C [9] 96.4% | viability, T/C [10] 79% | viability, T/C [11] 30.5% | viability, T/C [12] 33.4% | viability, T/C [13] 104% | viability, T/C [14] 98.1% | viability, T/C [15] 98% | viability, T/C [16] 94.6% | viability, T/C [17] 35.4% | viability, T/C [18] 34.3% | viability, T/C [19] 106% | viability, T/C [20] 109% | viability, T/C [21] 109% | viability, T/C [22] 82% | viability, T/C [23] 28.6% | viability, T/C [24] 39.6% | viability, T/C [25] 100% | viability, T/C [26] 101% | viability, T/C [27] 107% | viability, T/C [28] 77.4% | viability, T/C [29] 26.2% | viability, T/C [30] 29.8% | viability, T/C [31] 94.4% | viability, T/C [32] 98% | viability, T/C [33] 77.9% | viability, T/C [34] 61.5% | viability, T/C [35] 16.9% | viability, T/C [36] 16.9%

O=C(NO)c1cnc(N2CCN(S(=O)(=O)c3ccc4ccccc4c3)CC2)nc1 + CN(C)c1ccc(Nc2c3ccc(NC(=O)CCN4CCCC4)cc3nc3cc(NC(=O)CCN4CCCC4)ccc23)cc1
476 nM: IC50 (second compound 10 µM)
511 nM: IC50 (second compound 0.1 µM)
553 nM: IC50 (second compound 0.316 µM)
active: viability, T/C [5] 0.22% | viability, T/C [6] 0.18% | viability, T/C [11] 0.13% | viability, T/C [12] 0.14% | viability, T/C [17] 0.14% | viability, T/C [18] 0.18% | viability, T/C [23] 0.16% | viability, T/C [24] 0.16% | viability, T/C [29] 0.14% | viability, T/C [30] 0.16% | viability, T/C [35] 0.22% | viability, T/C [36] 0.22%
554 nM: IC50 (second compound 1 µM)
603 nM: IC50 (second compound 0.0316 µM)
475 nM: IC50 (second compound 3.16 µM)
inactive: viability, T/C [1] 111% | viability, T/C [2] 91.6% | viability, T/C [3] 83.1% | viability, T/C [4] 25.2% | viability, T/C [7] 111% | viability, T/C [8] 97.7% | viability, T/C [9] 70.1% | viability, T/C [10] 23.5% | viability, T/C [13] 108% | viability, T/C [14] 126% | viability, T/C [15] 74.3% | viability, T/C [16] 23.4% | viability, T/C [19] 107% | viability, T/C [20] 117% | viability, T/C [21] 73.6% | viability, T/C [22] 24.3% | viability, T/C [25] 105% | viability, T/C [26] 103% | viability, T/C [27] 65.3% | viability, T/C [28] 20.6% | viability, T/C [31] 105% | viability, T/C [32] 92.3% | viability, T/C [33] 65.1% | viability, T/C [34] 24.7%

CC(C)n1c(=O)n(C)c2cnc3cc(F)c(-c4ccc(OCCCN5CCCCC5)nc4)cc3c21 + Cc1[nH]c2ccc(F)cc2c1-c1nc2c3cccnc3c3ncccc3c2[nH]1
inactive: viability, T/C [1] 108% | viability, T/C [2] 96.1% | viability, T/C [3] 126% | viability, T/C [4] 110% | viability, T/C [5] 122% | viability, T/C [6] 87.5% | viability, T/C [7] 92.1% | viability, T/C [8] 129% | viability, T/C [9] 110% | viability, T/C [10] 116% | viability, T/C [11] 157% | viability, T/C [12] 91.7% | viability, T/C [13] 87.1% | viability, T/C [14] 100% | viability, T/C [15] 100% | viability, T/C [16] 96.6% | viability, T/C [17] 125% | viability, T/C [18] 146% | viability, T/C [19] 104% | viability, T/C [20] 107% | viability, T/C [21] 101% | viability, T/C [22] 99.1% | viability, T/C [23] 134% | viability, T/C [24] 107% | viability, T/C [25] 78.6% | viability, T/C [26] 89.2% | viability, T/C [27] 79.9% | viability, T/C [28] 99.4% | viability, T/C [29] 99.1% | viability, T/C [30] 83.3% | viability, T/C [31] 71.9% | viability, T/C [32] 73.4% | viability, T/C [33] 71.1% | viability, T/C [34] 96.3% | viability, T/C [35] 79.4% | viability, T/C [36] 72.1%
> 10000 nM: IC50 (second compound 0.0316 µM) | IC50 (second compound 0.1 µM) | IC50 (second compound 0.316 µM) | IC50 (second compound 1 µM) | IC50 (second compound 3.16 µM) | IC50 (second compound 10 µM)
